Reference: the supplement of paper PMC11208160

Experiment: recombinant barcode read abundance after kanamycin selection (control-corrected) (log10(CPM+1)); higher = more efficient recombination; sequences stand for … in AGTGCAGAGAAAATCGGCCAGTTTTCTCTGCCTGCAGTCCGCATGCCGT…AGATTTATGCAGCGGACTGCCTTTCTCCCAAAGTGATAAACCGGACAGTATCATGGACCGGTTTTCCCGGTAATCCGTATTTGCAAGGTTGGTTTCACT; site = the 11-nt target
Procedure, shortened: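 Pooled E. coli screen pairing targets with IS621 bridge RNA target-binding loops. Each oligo (promoter, target, barcode, J23119-driven first 104 bridge RNA bases) was Gibson-cloned into a vector with the remaining 73 bp and T7-inducible recombinase, then co-electroporated with a donor plasmid. Two replicates each were plated on chloramphenicol/ampicillin LB agar (control) or chloramphenicol/ampicillin/kanamycin with 0.1 mM IPTG. Recombination efficiency is recombinant-junction barcode counts as CPM, averaged, control-corrected, reported as log10(CPM+1).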
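Also: IS621 recombinase and bridge RNA in Escherichia coli cells.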

Sequence | recombinant barcode read abundance (log10)
CAGGGTTCTTGGGTTCTAACCTGTTGCCT (site CCGGGTTCTAG) | 0.0396
CAGGGTTCTTGGGTTCTAACCTGTTGCCT (site CGGGGTTCTAG) | 0.12
CAGGGTTCTTGGGTTCTAACCTGTTGCCT (site CTGGGTTCTAG) | 0.21
CAGGTACCTTGGGTTCTAACCTGTTGCAT (site CAGGTACCTAT) | 3.14
CAGGTACCTTGGGTTCTAACCTGTTGCAT (site CAGGTACCTCT) | 0.864
CAGGTCCCTTGGGTTCTAACCTGTTGCCG (site ATACGTTCTAT) | 0.102
CAGGTCCCTTGGGTTCTAACCTGTTGCCG (site CAGGTCCCTCG) | 2.74
CAGGTGACTTGGGTTCTAACCTGTTGCGG (site CAGGTGACTCC) | 1.33
CAGGTGACTTGGGTTCTAACCTGTTGCGG (site GGATATCCTAA) | 0.0229
CAGTACGCTTGGGTTCTAACCTGTTGCCT (site CAGCAAGCTAG) | 0.31
CAGTACGCTTGGGTTCTAACCTGTTGCCT (site CAGTACGCTAG) | 0.652
CAGTATCCTTGGGTTCTAACCTGTTGCCT (site CAATATCCTAG) | 0.867
CAGTATCCTTGGGTTCTAACCTGTTGCCT (site CACTATCCTAG) | 0.0764
CAGTATCCTTGGGTTCTAACCTGTTGCCT (site CAGTATCCTAG) | 0.945
CAGTATCCTTGGGTTCTAACCTGTTGCCT (site CATTATCCTAG) | 0.096
CAGTGCTCTTGGGTTCTAACCTGTTGCCA (site CAATGCTCTAG) | 0.648
CAGTGCTCTTGGGTTCTAACCTGTTGCCA (site CAGTGCTCTTG) | 1.52
CAGTGTCCTTGGGTTCTAACCTGTTGCCG (site CAGTGTCCTCG) | 1.45
CAGTGTCCTTGGGTTCTAACCTGTTGCCG (site GAGCGTCCTCG) | 0.122
CATAACCCTTGGGTTCTAACCTGTTGCAT (site ATCGGATCTCG) | 0.0317
CATAACCCTTGGGTTCTAACCTGTTGCAT (site CATAACCCTAT) | 1.84
CATCAGCCTTGGGTTCTAACCTGTTGCCT (site CATAAGCCTAG) | 0.206

Sequence | recombinant barcode read abundance (log10)
CATCAGCCTTGGGTTCTAACCTGTTGCCT (site CATCAGCCTAG) | 0.547
CATCAGCCTTGGGTTCTAACCTGTTGCCT (site CATGAGCCTAG) | 0.306
CATCAGCCTTGGGTTCTAACCTGTTGCCT (site CATTAGCCTAG) | 0.0622
CATCCGGCTTGGGTTCTAACCTGTTGCCT (site CATCCGACTAG) | 0.317
CATCCGGCTTGGGTTCTAACCTGTTGCCT (site CATCCGCCTAG) | 0.0278
CATCCGGCTTGGGTTCTAACCTGTTGCCT (site CATCCGGCTAG) | 0.434
CATCCGGCTTGGGTTCTAACCTGTTGCCT (site CATCCGTCTAG) | 0.255
CATCCGTCTTGGGTTCTAACCTGTTGCTT (site CATCCCTCTAA) | 0.0222
CATCCGTCTTGGGTTCTAACCTGTTGCTT (site CATCCGTCTAA) | 1.24
CATCCTACTTGGGTTCTAACCTGTTGCAT (site CATCCTACTAT) | 0.665
CATCCTACTTGGGTTCTAACCTGTTGCAT (site CATCCTACTCG) | 0.0637
CATCCTACTTGGGTTCTAACCTGTTGCGG (site CATCCTACTCC) | 1.98
CATCCTACTTGGGTTCTAACCTGTTGCGG (site CATCCTCCTCA) | 0.0136
CATCGATCTTGGGTTCTAACCTGTTGCCT (site CATCGATCTAG) | 0.558
CATCGATCTTGGGTTCTAACCTGTTGCCT (site CATCTATCTAG) | 0
CATCGCACTTGGGTTCTAACCTGTTGCCT (site CATCGCACTAG) | 0.0933
CATCGCACTTGGGTTCTAACCTGTTGCCT (site CCTCGCACTAG) | 0.289
CATCGCACTTGGGTTCTAACCTGTTGCCT (site CGTCGCACTAG) | 0.153
CATCGCACTTGGGTTCTAACCTGTTGCCT (site CTTCGCACTAG) | 0.184
CATCGGACTTGGGTTCTAACCTGTTGCAG (site ACATAAGCTAG) | 0.139
CATCGGACTTGGGTTCTAACCTGTTGCAG (site CATCGGACTCT) | 1.48
CATCGTACTTGGGTTCTAACCTGTTGCAT (site CATCGTACTAT) | 0.00546

Sequence | recombinant barcode read abundance (log10)
CATCGTACTTGGGTTCTAACCTGTTGCAT (site CCTCGGACTAT) | 0.0241
CATCTACCTTGGGTTCTAACCTGTTGCGG (site CATCTACCTCC) | 1.39
CATCTACCTTGGGTTCTAACCTGTTGCGG (site TTGGATACTTG) | 0.332
CATCTATCTTGGGTTCTAACCTGTTGCCT (site CATCGATCTAG) | 0.353
CATCTATCTTGGGTTCTAACCTGTTGCCT (site CATCTATCTAG) | 0.624
CATGACCCTTGGGTTCTAACCTGTTGCCT (site CAAGACCCTAG) | 0.993
CATGACCCTTGGGTTCTAACCTGTTGCCT (site CACGACCCTAG) | 0.774
CATGACCCTTGGGTTCTAACCTGTTGCCT (site CAGGACCCTAG) | 0.85
CATGACCCTTGGGTTCTAACCTGTTGCCT (site CATGACCCTAG) | 1.67
CATGATACTTGGGTTCTAACCTGTTGCCT (site ATCTTGTCTCC) | 0.0865
CATGATACTTGGGTTCTAACCTGTTGCCT (site CATGATACTAG) | 0.922
CATGCCTCTTGGGTTCTAACCTGTTGCCG (site CATGCCTCTCG) | 2.17
CATGCCTCTTGGGTTCTAACCTGTTGCCG (site GCAAGTCCTAC) | 0.227
CATGCGACTTGGGTTCTAACCTGTTGCGT (site AGCATCCCTCA) | 0.234
CATGCGACTTGGGTTCTAACCTGTTGCGT (site CATGCGACTAC) | 0.472
CATGCTACTTGGGTTCTAACCTGTTGCGT (site CATGCTACTAC) | 0.41
CATGCTACTTGGGTTCTAACCTGTTGCGT (site GATTCTACTAC) | 0.0988
CATGTACCTTGGGTTCTAACCTGTTGCCT (site AATGTACCTAG) | 0.0837
CATGTACCTTGGGTTCTAACCTGTTGCCT (site CATGTACCTAG) | 2.02
CATGTACCTTGGGTTCTAACCTGTTGCCT (site GATGTACCTAG) | 0.145
CATGTACCTTGGGTTCTAACCTGTTGCCT (site TATGTACCTAG) | 0.0813
CATTAGACTTGGGTTCTAACCTGTTGCCT (site AATTAGACTAG) | 0.356

Sequence | recombinant barcode read abundance (log10)
CATTAGACTTGGGTTCTAACCTGTTGCCT (site CATTAGACTAG) | 0.423
CATTAGACTTGGGTTCTAACCTGTTGCCT (site GATTAGACTAG) | 0.195
CATTAGACTTGGGTTCTAACCTGTTGCCT (site TATTAGACTAG) | 0.08
CATTCAACTTGGGTTCTAACCTGTTGCCT (site CATTCAACTAG) | 0.133
CATTCAACTTGGGTTCTAACCTGTTGCCT (site CATTCAACTCG) | 0.115
CATTTCACTTGGGTTCTAACCTGTTGCCT (site CATTTCACTAG) | 0.379
CATTTCACTTGGGTTCTAACCTGTTGCCT (site GCCCATGCTCC) | 0.0522
CATTTCCCTTGGGTTCTAACCTGTTGCTT (site CATTTCCCTAA) | 0.122
CATTTCCCTTGGGTTCTAACCTGTTGCTT (site CATTTCCCTAG) | 0.246
CATTTCTCTTGGGTTCTAACCTGTTGCCT (site AATTTCTCTAG) | 0.0363
CATTTCTCTTGGGTTCTAACCTGTTGCCT (site CATTTCTCTAG) | 0.341
CATTTCTCTTGGGTTCTAACCTGTTGCCT (site GATTTCTCTAG) | 0.116
CATTTCTCTTGGGTTCTAACCTGTTGCCT (site TATTTCTCTAG) | 0.00749
CCAAAGACTTGGGTTCTAACCTGTTGCTT (site CCAAAGACTAA) | 0.653
CCAAAGACTTGGGTTCTAACCTGTTGCTT (site GGGTCACCTCC) | 0
CCACACTCTTGGGTTCTAACCTGTTGCCT (site CAACACTCTAG) | 0.0891
CCACACTCTTGGGTTCTAACCTGTTGCCT (site CCACACTCTAG) | 1.27
CCACACTCTTGGGTTCTAACCTGTTGCCT (site CGACACTCTAG) | 0.0247
CCACACTCTTGGGTTCTAACCTGTTGCCT (site CTACACTCTAG) | 0.171
CCACATCCTTGGGTTCTAACCTGTTGCCT (site CCACATCCTAG) | 0.289
